Drawing on patent US5750546A, “2-(2, 3, 5, 6-tetrafluoro-4-pyridyl)-1, 2, 5-thiadiazolidin-3-one 1, 1-dioxides and compositions and method of use thereof” (Sanofi Winthrop, Inc., priority 1994, dated 1998), this text covers Ki for two compounds.

By Ki is commonly meant the equilibrium dissociation constant of an inhibitor or competing ligand from its target.

The test addresses T1, human leukocyte elastase (Homo sapiens, UniProt P08246).
T1 sequence (P08246 30-267): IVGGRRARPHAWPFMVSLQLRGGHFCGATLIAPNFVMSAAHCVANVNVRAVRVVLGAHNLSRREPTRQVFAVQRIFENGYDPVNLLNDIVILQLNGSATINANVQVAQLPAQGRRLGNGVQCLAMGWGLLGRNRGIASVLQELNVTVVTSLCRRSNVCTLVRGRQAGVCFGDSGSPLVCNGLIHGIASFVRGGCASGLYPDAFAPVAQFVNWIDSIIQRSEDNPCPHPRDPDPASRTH
The test is described as follows: human leukocyte elastase inhibition assay (progress curves, MeOSuc-Ala-Ala-Pro-Val-pNA substrate). In kind it is biochemical. The following applies: in vitro, pH 7.8 at 25° C., absorbance 410 nm, read-out: Ki, human leukocyte elastase inhibitory activity. How it is done: The test compound (inhibitor) is dissolved in DMSO in a vial to produce an inhibitor stock solution which has a concentration in the range of 200-1000μM. The inhibitor stock solution is diluted (1:4, 1:16 and 1:64) into assay vials (vials 1, 2 and 3 respectively) containing 2.4 mL of buffer solution (50 mM N-[2-hydroxyethyl] piperazine-N'-[2-ethanesulfonic acid]/NaOH, 500 mM NaCl, pH 7.8 at 25° C.) and DMSO is added so that the total volume in each vial is 3.2 mL. 70 μL, 50 μL, 35 μL and 25 μL of inhibitor from assay vial 1 is placed into the first four wells of a 96-well microtiter plate and each well is made up to 90 μL total volume with the addition of a 25% DMSO/buffer solution. […]
The 96-well microtiter plate is placed into a Microplate Reader #89815A spectrophotometer and 110 μL of the enzyme solution (prepared as follows: a mixture of 20 mL of buffer solution and 20 mg of bovine serum albumen is gently vortexed in a scintillation vial and 5 μL HLE stock solution (1 mg/mL dissolved in deionized water) is added) is added simultaneously to each of the 16 wells. Each of the solutions in the wells is throughly mixed and then the time-dependent absorbance data is collected at an absorbance of 410 nm until the assay is complete. […]
A plot of the absorbance versus time data thus obtained affords progress curves the final slope of which is equal to the final steady-state velocities (VF). […]

With `CC(C)CCC1C(=O)N(c2c(F)c(F)nc(F)c2F)S(=O)(=O)N1C` (centres unmarked) [2(h), 2-(2,3,5,6-tetrafluoro-4-pyridyl)-5-methyl-4-(3-methylbutyl)-1,2,5-thiadiazolidin-3-one 1,1-dioxide], the inhibition constant (Ki) was more than 100 nM. Consider `CCCC1C(=O)N(c2c(F)c(F)nc(F)c2F)S(=O)(=O)N1C` (centres unmarked) [Example 1(g), 2-(2,3,5,6-tetrafluoro-4-pyridyl)-5-methyl-4-propyl-1,2,5-thiadiazolidin-3-one 1,1-dioxide], for which the Ki was 10 nM.
